Reference: patent publication US7173063B1, “Topoisomerase poisons for the treatment of proliferative disorders” (Fred Hutchinson Cancer Research Center, priority 2000, dated 2007)

Legend:
[1] = tested on: yeast lacking Ku70 (encoded by the HDF1 gene); experiment: Yeast toxicity in NHEJ-deficient strain lacking Ku70 (hdf1); assay type: cell-based
Procedure: Yeast toxicity assays were performed essentially as follows: Exponentially growing cultures of the appropriate strains were diluted in synthetic complete media to a concentration of 7.4×10^4 cells/mL, and aliquots (135 μL) were transferred to each well of clear flat-bottomed 96 well plates. Compounds were added in duplicate or triplicate as 15 μL of the appropriate dilution in 5% DMSO. A 15 μL portion of 5% DMSO was added to control wells. Assay plates were incubated at 30° C. for approximately seven generations growth in solvent control wells (as monitored by OD660, typically 21–24 hours), then the OD660 of the cultures was measured in a microplate reader (Bio-Tek). Cell growth (OD660) in treated wells was plotted as a percentage of the growth in at least four averaged solvent control wells for the same strain. Camptothecin sodium salt (camptothecin Na) was the agent used in all yeast assays as standard.
The sensitivity of yeast lacking Ku70 (encoded by the HDF1 gene) to camptothecin Na, compounds Ia and IIa, has now been examined. […] Thus the NHEJ pathway is not important for the repair of lesions induced by these compounds in yeast.

[2] = tested on: chicken pre-B cell line DT40; experiment: Thymidine incorporation toxicity assay in isogenic DT40 cells with or without KU70, RAD52, RAD54; assay type: cell-based; conditions: for effect of loss of KU70 on toxicity: DT40 with or without KU70; for effect of loss of homologous recombination (RAD52 or RAD54) on toxicity: DT40 with or without RAD52 or RAD54
Procedure: Cell lines were grown at 37° C. in an atmosphere of 5% CO2. The chicken pre-B cell line DT40 and its derivatives (Bezzubova, et al., Cell 89: 185–93 (1997), Takata, et al., EMBO Journal 17: 5497–508 (1998), Yamaguchi-Iwai, et al., Molecular & Cellular Biology 18: 6430–5 (1998)) were grown in RPMI containing 10% fetal calf serum and 1% chicken serum. The remaining cell lines were grown in DMEM with 10% fetal calf serum.
Toxicity assays in mammalian cell lines were performed using tritiated thymidine incorporation as a measure of the number of viable cells. […] Drug toxicity was measured as follows:
(§1) Cells were plated at a density of 500 cells per well in opaque 96 well plates (Packard) in a volume of 135 μL per well of the appropriate media. The plates were incubated overnight to allow cell adherence. Seven two-fold dilutions of the test compounds were added in a volume of 15 μL per well in triplicate, and 15 μL of media containing an appropriate concentration of DMSO was added to control wells in triplicate. Plates were incubated at 37° C. for 96 hours. The media was then replaced with 100 μL per well of the appropriate media containing 2 μCi/mL of (methyl-^3H) thymidine (Amersham Pharmacia Biotech), then plates were incubated for a further 24 hours at 37° C. Cells were washed three times with PBS, then 100 μL per well of scintillant was added (Microscint 20, Packard), and sealed plates were counted in a microplate reader (Packard Topcount). For suspension chicken cells, (methyl-^3H) thymidine was added directly to the drug-containing media at a concentration of 20 μCi/mL (comprising one tenth of the media volume) and incubated overnight. The suspension cells were transferred to a UniFilter GF/C plate (Packard) and washed with PBS in a plate washer (Packard). After drying, 25 μL per well of scintillant (Microscint 20, Packard) was added, and sealed plates were counted. Toxicity is expressed as a percentage of the control counts. For experiments involving shorter exposures to compounds, cells were grown in the presence of compound for the appropriate time, then the media was replaced with fresh drug-free media, and incubation continued for the remainder of 96 hours, followed by the normal tritiated thymidine uptake and washing protocol.
In the case of Topo II poisons, the drug/enzyme complex directly produces a DSB, which could occur in all phases of the cell cycle and can apparently be repaired by either DSB repair pathway. Topo I poisons, however, create a single strand break that is converted to a DSB by passage of a replication fork during ongoing DNA synthesis (D'Arpa, et al., Cancer Research 50: 6919–24 (1990), Hsiang, et al., Cancer Research 49: 5077–82 (1989), Holm, et al., Cancer Research 49: 6365–8 (1989)). It has been proposed that DSB's created in this context can only be repaired by homologous recombination, additionally requiring proteins involved in sister chromatid cohesion (Castano, et al., Genes & Development 10: 2564–76 (1996), Castano, et al., Nucleic Acids Research 24: 2404–10 (1996), Walowsky, et al., Journal of Biological Chemistry 274: 7302–8 (1999)).

Rat1a fibroblasts = experiment: Effect of co-treatment with hydroxyurea (HU) on toxicity in Rat1a fibroblasts; assay type: cell-based, rat; conditions: six-hour exposure; 0, 0.25, 0.5 or 1 mM HU
Procedure: FIG. 6 illustrates the effect of exposure time and hydroxyurea on the toxicity of compound Ia and compound IIa. […] Rat1a fibroblasts were exposed to compound during growth for either four or six hours, the media was changed, then cells were grown for an appropriate period such that total incubation time was 96 hours, and processed as described in the Example below. […] The bar graph insets for each graph show growth inhibition by HU alone.
as §1
A six-hour exposure was used to test whether the toxicity of the same set of compounds is dependent on ongoing DNA synthesis. […] Thus, in contrast to camptothecin and topotecan, compounds Ia and IIa show no marked time dependency for toxicity (FIG. 6A) and are not inhibited by HU (FIG. 6B), indicating critical mechanistic differences between these compounds and camptothecin.

Row | SMILES | sensitivity of NHEJ-deficient (hdf1) mutant compared with wild-type [1] | effect of loss of KU70 on toxicity [2] | effect of loss of homologous recombination (RAD52 or RAD54) on toxicity [2] | change of toxicity caused by HU co-treatment (Rat1a fibroblasts) | inhibition of toxicity by co-treatment with HU (Rat1a fibroblasts)
1 | O=c1c(Cl)c(Cl)cnn1CCCl [compound IIa] | indistinguishable from that of wild-type | unaffected by loss of KU70 | only marginally affected | slight accentuation of toxicity | not inhibited by co-treatment with HU
2 | O=C(CCl)Nc1ccc(C(=O)N/N=C/c2ccc(Cl)cc2)cc1 [compound Ia] | indistinguishable from that of wild-type | unaffected by loss of KU70 | only marginally affected | slight accentuation of toxicity | not inhibited by co-treatment with HU
